In patent publication US6753345B2, “7-hexanolytaxol and methods for preparing the same” (Hauser, Inc., priority 1998, dated 2004):
Converted amounts (≈) assume the structure as drawn. Read-outs that look alike come from different tables or passages of the source.

Assays:
SNB-19 = assay: SRB cytotoxicity screening assay (CNS Cancer)
MCF7 = assay: SRB cytotoxicity screening assay (Breast Cancer); conditions: Homo sapiens, MCF7, 48 h
786-0 = assay: SRB cytotoxicity screening assay (Renal Cancer)
UACC-257 = assay: SRB cytotoxicity screening assay (Melanoma)
M14 = assay: SRB cytotoxicity screening assay (Melanoma)
HCC-2998 = assay: SRB cytotoxicity screening assay (Colon Cancer); conditions: HCC-2998 (Colon Cancer); PG=0; 48 hour incubation
PC-3 = assay: SRB cytotoxicity screening assay (Prostate Cancer)
SF-539 = assay: SRB cytotoxicity screening assay (CNS Cancer); conditions: Homo sapiens, SF-539, 48 h, read-out: Log10 GI50 (converted)
K-562 = assay: SRB cytotoxicity screening assay (Leukemia)
OVCAR-5 = assay: SRB cytotoxicity screening assay (Ovarian)
OVCAR-3 = assay: SRB cytotoxicity screening assay (Ovarian)
RXF-393 = assay: SRB cytotoxicity screening assay (Renal Cancer)
SW-620 = assay: SRB cytotoxicity screening assay (Colon Cancer)
NCI-H226 = assay: SRB cytotoxicity screening assay (Non-Small Cell Lung Cancer); conditions: Homo sapiens, NCI-H226, 48 h, read-out: Log10 LC50 (converted)
NCI-H322M = assay: cells; conditions: Homo sapiens, 48 h
NCI-H460 = assay: SRB cytotoxicity screening assay (Non-Small Cell Lung Cancer); conditions: NCI-H460 (Non-Small Cell Lung Cancer); PG=0; 48 hour incubation
IGR-OV1 = assay: SRB cytotoxicity screening assay (Ovarian)
U251 = assay: SRB cytotoxicity screening assay (CNS Cancer)
26 cell lines = assay: 26 cell line growth inhibition screen, sulforhodamine stain; assay type: cell-based; conditions: 26 cell lines, 48 hour drug treatment, sulforhodamine stain
MALME-3M = assay: SRB cytotoxicity screening assay (Melanoma); conditions: MALME-3M (Melanoma); PG=0; 48 hour incubation
CCRF-CEM = assay: SRB cytotoxicity screening assay (Leukemia); conditions: for Log10 TGI: CCRF-CEM (Leukemia), PG=0, 48 hour incubation
HOP-62 = assay: SRB cytotoxicity screening assay (Non-Small Cell Lung Cancer)
HL-60(TB) = HL-60(TB) (Leukemia); PG=0; 48 hour incubation
[1] = read-out: Log10 GI50 (converted)
[2] = read-out: Log10 LC50 (converted)

With `CC(=O)O[C@H]1C(=O)[C@@]2(C)[C@H]([C@H](OC(=O)c3ccccc3)[C@]3(O)C[C@H](OC(=O)[C@H](O)[C@@H](NC(=O)c4ccccc4)c4ccccc4)C(C)=C1C3(C)C)[C@]1(OC(C)=O)CO[C@@H]1C[C@@H]2O` [Paclitaxel, paclitaxel, reference compound] the GI50 (SNB-19; Homo sapiens, SNB-19, 48 h, read-out: Log10 GI50 (converted)) was 1.05 nM, the CC50 (SNB-19; Homo sapiens, SNB-19, 48 h, read-out: Log10 LC50 (converted)) was greater than 100000 nM and the “Log10 TGI” value (SNB-19; SNB-19 (CNS Cancer), PG=0, 48 hour incubation) was greater than −4.00 molar. The GI50 (MCF7; [1]) was 0.00204 nM, the CC50 (MCF7; [2]) was greater than 100000 nM and the “Log10 TGI” value (786-0; 786-0 (Renal Cancer), PG=0, 48 hour incubation) was greater than −4.00 molar. It also gave a GI50 (786-0; Homo sapiens, 786-0, 48 h, read-out: Log10 GI50 (converted)) of 9.77 nM, a CC50 (786-0; Homo sapiens, 786-0, 48 h, read-out: Log10 LC50 (converted)) greater than 100000 nM and a GI50 (UACC-257; Homo sapiens, UACC-257, 48 h, read-out: Log10 GI50 (converted)) of 0.0501 nM. The CC50 (UACC-257; Homo sapiens, UACC-257, 48 h, read-out: Log10 LC50 (converted)) was 93300 nM, the “Log10 TGI” value (UACC-257; UACC-257 (Melanoma), PG=0, 48 hour incubation) was −4.52 molar and the GI50 (M14; Homo sapiens, M14, 48 h, read-out: Log10 GI50 (converted)) was 0.00186 nM. The “Log10 TGI” value (M14; M14 (Melanoma), PG=0, 48 hour incubation) was −4.62 molar, the “Log10 TGI” value (HCC-2998) was −4.77 molar and the GI50 (PC-3; Homo sapiens, PC-3, 48 h, read-out: Log10 GI50 (converted)) was 0.0141 nM. The CC50 (PC-3; Homo sapiens, PC-3, 48 h, read-out: Log10 LC50 (converted)) was greater than 100000 nM, the “Log10 TGI” value (PC-3; PC-3 (Prostate Cancer), PG=0, 48 hour incubation) was greater than −4.00 molar and the GI50 (SF-539) was 0.00813 nM. For the same molecule, the GI50 (K-562; Homo sapiens, K562, 48 h, read-out: Log10 GI50 (converted)) was 0.0148 nM, the CC50 (K-562; Homo sapiens, K562, 48 h, read-out: Log10 LC50 (converted)) was greater than 100000 nM and the “Log10 TGI” value (K-562; K-562 (Leukemia), PG=0, 48 hour incubation) was greater than −4.00 molar. The GI50 (OVCAR-5; Homo sapiens, OVCAR-5, 48 h, read-out: Log10 GI50 (converted)) was 0.417 nM, the CC50 (OVCAR-5; Homo sapiens, OVCAR-5, 48 h, read-out: Log10 LC50 (converted)) was greater than 100000 nM and the “Log10 TGI” value (OVCAR-5; OVCAR-5 (Ovarian), PG=0, 48 hour incubation) was −4.92 molar. The GI50 (OVCAR-3; Homo sapiens, OVCAR-3, 48 h, read-out: Log10 GI50 (converted)) was 0.0398 nM, the “Log10 TGI” value (OVCAR-3; OVCAR-3 (Ovarian), PG=0, 48 hour incubation) was −4.55 molar and the GI50 (RXF-393; Homo sapiens, RXF 393, 48 h, read-out: Log10 GI50 (converted)) was 4.79 nM. For the same molecule, the CC50 (RXF-393; Homo sapiens, RXF 393, 48 h, read-out: Log10 LC50 (converted)) was 35500 nM, the “Log10 TGI” value (RXF-393; RXF-393 (Renal Cancer), PG=0, 48 hour incubation) was −4.90 molar and the GI50 (SW-620; Homo sapiens, SW-620, 48 h, read-out: Log10 GI50 (converted)) was 0.00251 nM. The “Log10 TGI” value (SW-620; SW-620 (Colon Cancer), PG=0, 48 hour incubation) was greater than −4.00 molar, the CC50 (NCI-H226) was greater than 100000 nM and the GI50 (NCI-H322M; [1]) was 0.0759 nM. The CC50 (NCI-H322M; [2]) was greater than 100000 nM, the “Log10 TGI” value (NCI-H460) was −4.92 molar and the GI50 (IGR-OV1; Homo sapiens, IGROV-1, 48 h, read-out: Log10 GI50 (converted)) was 2.45 nM. The “Log10 TGI” value (IGR-OV1; IGR-OV1 (Ovarian), PG=0, 48 hour incubation) was −4.19 molar, the GI50 (U251; Homo sapiens, U-251, 48 h, read-out: Log10 GI50 (converted)) was 0.00513 nM and the “Log10 TGI” value (U251; U251 (CNS Cancer), PG=0, 48 hour incubation) was −4.32 molar. The IC50 (26 cell lines; read-out: Mean IC50 (26 cell line Mean Growth inhibition IC50 value)) was 0.02 µg/mL (≈ 0.0234 µM), the IC50 (26 cell lines; read-out: Min IC50 (lowest observed IC50 value in 26 cell line screen)) was 0.001 µg/mL (≈ 0.00117 µM) and the “Log10 TGI” value (MALME-3M) was −4.46 molar. For the same molecule, the “Log10 TGI” value (CCRF-CEM) was greater than −4.00 molar, the “Log10 TGI” value (CCRF-CEM; listed as paclitaxel) was “greater than −4.00 molar” and the GI50 (CCRF-CEM; Homo sapiens, CCRF-CEM, 48 h, read-out: Log10 GI50 (converted)) was 0.00245 nM. The “Log10 TGI” value (HOP-62; HOP-62 (Non-Small Cell Lung Cancer), PG=0, 48 hour incubation) was −4.80 molar, the GI50 (HOP-62; Homo sapiens, HOP-62, 48 h, read-out: Log10 GI50 (converted)) was 0.214 nM and the CC50 (HOP-62; Homo sapiens, HOP-62, 48 h, read-out: Log10 LC50 (converted)) was 89100 nM. The “Log10 TGI” value (HL-60(TB)) was greater than −4.53 molar.
